Measured values: US9101133B2, “Phenyl-substituted bicyclooctane-1,3-dione-derivatives” (BAYER INTELLECTUAL PROPERTY GMBH, priority 2010, dated 2015)

Tests used:
Type in all cases: in vivo
[1] = test system: monocotylidonous and dicotylidonous weed and crop plants; test: Herbicidal pre-emergence action; settings: 320 g/ha, visual assessment after three weeks, 100% = plants have died; for herbicidal effect in percent, ALOMY: ALOMY = Alopecurus myosuroides; for herbicidal effect in percent, AVEFA: AVEFA = Avena fatua; for herbicidal effect in percent, ECHCG: ECHCG = Echinochloa crus-galli; for herbicidal effect in percent, LOLMU: LOLMU = Lolium multiflorum; for herbicidal effect in percent, SETVI: SETVI = Setaria viridis; for herbicidal effect in percent, VIOTR: VIOTR = Viola tricolor
Source text: 1. Herbicidal Pre-Emergence Action
• Seeds of monocotylidonous and dicotylidonous weed and crop plants are placed in sandy loam in wood fibre pots and covered with soil. The test compounds, formulated in the form of wettable powders (WP), are then, as an aqueous suspension with a water application rate of 600 l/ha (converted), with 0.2% of wetting agent added, applied to the surface of the covering soil in different amounts. • After the treatment, the pots are placed in a greenhouse and kept under good growth conditions for the test plants. The visual assessment of the emergence damage on the test plants is carried out after a trial period of three weeks by comparison with the untreated controls (herbicidal effect in percent: 100% effect=the plants have died, 0% effect=like control plants).

LOLMU = test: Herbicidal post-emergence action; settings: 80 g/ha, visual assessment after about three weeks, 100% = plants have died
Method: (§1) 2. Herbicidal Post-Emergence Action
(§2) • Seeds of monocotylidonous and dicotylidonous weed and crop plants are placed in sandy loam in wood fibre pots, covered with soil and cultivated in a greenhouse under good growth conditions. Two to three weeks after sowing, the test plants are treated at the one-leaf stage. The test compounds, formulated as wettable powders (WP), are then with a water application rate of 600 l/ha (converted), with 0.2% of wetting agent added, sprayed onto the green parts of the plants in different amounts. After the test plants have been kept in the greenhouse under optimum growth conditions for about three weeks, the effect of the preparations is assessed visually in comparison to untreated controls (herbicidal effect in percent: 100% effect=the plants have died, 0% effect=like control plants). Post-Emergence, 80 g/ha

AVEFA = test: Herbicidal post-emergence action; settings: 80 g/ha, visual assessment after about three weeks, 100% = plants have died
Method: as §1, §2

ALOMY = test: Herbicidal post-emergence action; settings: 80 g/ha, visual assessment after about three weeks, 100% = plants have died
Method: as §1, §2

ECHCG = test: Herbicidal post-emergence action; settings: 80 g/ha, visual assessment after about three weeks, 100% = plants have died
Method: as §1, §2

SETVI = test: Herbicidal post-emergence action; settings: visual assessment after about three weeks, 100% = plants have died; for herbicidal effect in percent, SETVI: 80 g/ha; for pest or weed control at 80 g/ha: 504 h, read-out: herbicidal effect in percent, SETVI
Method: as §1, §2

| Compound | herbicidal effect in percent, ALOMY [1] [%] | herbicidal effect in percent, AVEFA [1] [%] | herbicidal effect in percent, ECHCG [1] [%] | herbicidal effect in percent, LOLMU [1] [%] | herbicidal effect in percent, SETVI [1] [%] | herbicidal effect in percent, LOLMU (LOLMU) [%] | herbicidal effect in percent, AVEFA (AVEFA) [%] | herbicidal effect in percent, ALOMY (ALOMY) [%] | herbicidal effect in percent, ECHCG (ECHCG) [%] | herbicidal effect in percent, SETVI (SETVI) [%] | pest or weed control at 80 g/ha (SETVI) [%] | herbicidal effect in percent, VIOTR [1] [%] | herbicidal effect in percent, STEME ([1]; STEME = Stellaria media) [%] | herbicidal effect in percent, VERPE ([1]; VERPE = Veronica persica) [%] |
| --- | --- | --- | --- | --- | --- | --- | --- | --- | --- | --- | --- | --- | --- | --- |
| CCc1cc(C)cc(CC)c1C1=C(OC(=O)C(C)(C)C)C2CC(C(OC)OC)CC2C1=O (mixture of isomers) [I-b-5] | 100 | 100 | 100 | 100 | 90 | 100 | 100 | 100 | 100 | 100 | – | – | – | – |
| CCc1cc(C)cc(CC)c1C1C(=O)C2CC(C#N)CC2C1=O (stereo not drawn) [I-a-4, 5-(2,6-Diethyl-4-methylphenyl)-4,6-dioxooctahydropentalene-2-carbonitrile] | – | – | 100 | – | 90 | 60 | 90 | 50 | 100 | – | 100 | – | – | – |
| CCc1cc(C)cc(CC)c1C1C(=O)C2CC(C3OCCCO3)CC2C1=O (stereo not drawn) [I-a-5, 2-(2,6-Diethyl-4-methylphenyl)-5-(1,3-dioxan-2-yl)tetrahydropentalene-1,3(2H,3aH)-dione] | 100 | 90 | – | 100 | 90 | 100 | 100 | 100 | 100 | – | 100 | – | – | – |
| CCc1cc(C)cc(CC)c1C1C(=O)C2CC(CO)CC2C1=O (stereo not drawn) [I-a-7] | – | 80 | 100 | 100 | – | 100 | 70 | 100 | 100 | 80 | – | – | – | – |
| CCc1cc(C)cc(CC)c1C1C(=O)C2CC(C(=O)OC)CC2C1=O (stereo not drawn) [I-a-9] | 100 | 80 | 100 | 100 | 90 | 100 | 90 | 100 | 100 | 100 | – | – | – | – |
| CCc1cc(C)cc(CC)c1C1C(=O)C2CC(C3OCCO3)CC2C1=O (stereo not drawn) [I-a-10] | 100 | 90 | 100 | 100 | 100 | 100 | 100 | 100 | 100 | 100 | – | 90 | – | – |
| CCc1cc(C)cc(CC)c1C1=C(O)C2CC(C=NOC)CC2C1=O (stereo not drawn) [I-a-13, 5-(2,6-diethyl-4-methylphenyl)-6-hydroxy-4-oxo-1,2,3,3a,4,6a-hexahydropentalene-2-carbaldehyde O-methyloxime] | – | 80 | – | 100 | – | 100 | 100 | 100 | 100 | – | 100 | 100 | 100 | 90 |
| CCc1cc(C)cc(CC)c1C1C(=O)C2CC(OC)CC2C1=O (stereo not drawn) [I-a-22] | 100 | 90 | 100 | 100 | 100 | 100 | 100 | 100 | 100 | 100 | – | – | – | – |
